{"source": "patent US10935552B2", "about": "“Aie luminogens for visualization and treatment of cancer” (THE HONG KONG UNIVERSITY OF SCIENCE AND TECHNOLOGY, priority 2015, dated 2021)", "key": {"COS-7 cells": {"system": "COS-7 cells", "assay": "Cell imaging under fluorescent microscope, COS-7 normal cells", "format": "cell-based, simian", "details": "COS-7 stained alone, 200 nM, 1-20 min", "experimental": "Cell culture: HeLa cells were cultured in the MEM containing 10% FBS and 1% antibiotics (100 units/mL penicillin and 100 µg/mL streptomycin) in a 5% CO2 humidity incubator at 37° C. COS-7, MDA-MB-231, MCF-7, and MDCK-II cells were culture in the DMEM containing 10% FBS and antibiotics (100 units/mL penicillin and 100 µg/mL streptomycin) in a 5% CO2 humidity incubator at 37° C. Cell imaging: two different kind of cells were grown overnight on a 35 mm petri dish with a cover slip. The live cells were incubated with 200 nM of TPE-IQ-2O for 1, 5, 10, and 20 mins. […] Condition: 200 nM (Filter: both close; Channel 5; EX: 400-440 nm; Exposure time: bright field: 1000 ms Fluorescence: 1000 ms. Two different kinds of cells were grown overnight on a 35 mm petri dish with a cover slip. The live cells were incubated with 200 nM of TPE-IQ-2O for 20, 10, and 5 mins. The MCF-7 cells were stained by TPE-IQ-2O; the COS-7 cells were stained by TPE-IQ-2O; the MCF-7 cells and COS-7 cells were co-cultured and stained together by TPE-IQ-2O. Condition: 200 nM (Filter: both close; Channel 5; EX: 400-440 nm; Exposure time: bright field: 1000 ms Fluorescence: 1000 ms. Two different kinds of cells were grown overnight on a 35 mm petri dish with a cover slip. […] Condition: 200 nM (Filter: both close; Channel 5; EX: 400-440 nm; Exposure time: bright field: 1000 ms Fluorescence: 1000 ms."}, "HCC827 cells": {"system": "HCC827 cells", "assay": "Cell imaging, HCC827 cells", "format": "cell-based", "details": "HCC827, 200 nM, 20 and 10 mins", "experimental": "The PC-9, HepG2, and HCC827 cells were grown overnight on a 35 mm petri dish with a cover slip. The live cells were incubated with 200 nM of TPE-IQ-2O for 20 and 10 mins. In all the experiments, the cancer cells are fluorescent in solely staining."}, "ROS": {"system": "ROS", "assay": "ROS generation under white light with H2DCF-DA indicator", "details": "white light irradiation; dye 10 mM, H2DCF-DA 5 mM, ex 488 nm", "experimental": "Fluorescence change of TPE-IQ-2O, H2DCF-DA (ROS indicator) and the mixture with different irradiation time of white light. […] Dye (TPE-IQ-2O): 10 mM; H2DCF-DA: 5 mM. Excitation wavelength: 488 nm."}}}
{"smiles": "CCC[n+]1cc2ccc(C(=C(c3ccc(OC)cc3)c3ccc(OC)cc3)c3ccccc3)cc2c(-c2ccccc2)c1-c1ccccc1", "note": "[TPE-IQ-2O, 6-(2,2-bis(4-methoxyphenyl)-1-phenylvinyl)-3,4-diphenyl-2-propylisoquinolin-2-ium]", "values": [{"measurement": "Fluorescence of stained cells", "setting": "COS-7 cells", "value": "not stained"}, {"measurement": "Fluorescence of stained cells", "setting": "HCC827 cells", "value": "fluorescent"}, {"measurement": "ROS generation (H2DCF-DA fluorescence)", "setting": "ROS", "value": "continuous ROS generation"}]}
